Results taken from patent US9340590B2 (priority 2011, dated 2016).
pIC50: −log10 of the molar value. Positions of bridges follow the written chain, without caps; N, C: chain ends. Non-standard residues stand in square brackets, D forms with d. Residues, ends and D or L forms follow the SMILES beside them. Groups on a side chain read outwards from the residue. *: point of attachment. Pent4ynoyl = C#CCCC(=O)*; Pra = C#CC[C@H](N)C(=O)O; Nva = CCC[C@H](N)C(=O)O; Abu = CC[C@H](N)C(=O)O

How the values were obtained:
Assay in all cases: cell-based
[1] = biological target: hNav1.7 (Homo sapiens, UniProt Q15858); assay type: cell-based; settings: IonWorks Quattro, use-dependent block, hNav1.7; read-out: IWQ Use Nav1.7
[2] = biological target: hNav1.5 (Homo sapiens, UniProt Q14524); settings: IonWorks Quattro, use-dependent block, hNav1.5; read-out: IWQ Use Nav1.5
[3] = biological target: hNav1.3 (Homo sapiens, UniProt Q9NY46); settings: IonWorks Quattro, use-dependent block, hNav1.3; read-out: IWQ Use Nav1.3
Sequence of hNav1.3 (Q9NY46 whole entry, looked up): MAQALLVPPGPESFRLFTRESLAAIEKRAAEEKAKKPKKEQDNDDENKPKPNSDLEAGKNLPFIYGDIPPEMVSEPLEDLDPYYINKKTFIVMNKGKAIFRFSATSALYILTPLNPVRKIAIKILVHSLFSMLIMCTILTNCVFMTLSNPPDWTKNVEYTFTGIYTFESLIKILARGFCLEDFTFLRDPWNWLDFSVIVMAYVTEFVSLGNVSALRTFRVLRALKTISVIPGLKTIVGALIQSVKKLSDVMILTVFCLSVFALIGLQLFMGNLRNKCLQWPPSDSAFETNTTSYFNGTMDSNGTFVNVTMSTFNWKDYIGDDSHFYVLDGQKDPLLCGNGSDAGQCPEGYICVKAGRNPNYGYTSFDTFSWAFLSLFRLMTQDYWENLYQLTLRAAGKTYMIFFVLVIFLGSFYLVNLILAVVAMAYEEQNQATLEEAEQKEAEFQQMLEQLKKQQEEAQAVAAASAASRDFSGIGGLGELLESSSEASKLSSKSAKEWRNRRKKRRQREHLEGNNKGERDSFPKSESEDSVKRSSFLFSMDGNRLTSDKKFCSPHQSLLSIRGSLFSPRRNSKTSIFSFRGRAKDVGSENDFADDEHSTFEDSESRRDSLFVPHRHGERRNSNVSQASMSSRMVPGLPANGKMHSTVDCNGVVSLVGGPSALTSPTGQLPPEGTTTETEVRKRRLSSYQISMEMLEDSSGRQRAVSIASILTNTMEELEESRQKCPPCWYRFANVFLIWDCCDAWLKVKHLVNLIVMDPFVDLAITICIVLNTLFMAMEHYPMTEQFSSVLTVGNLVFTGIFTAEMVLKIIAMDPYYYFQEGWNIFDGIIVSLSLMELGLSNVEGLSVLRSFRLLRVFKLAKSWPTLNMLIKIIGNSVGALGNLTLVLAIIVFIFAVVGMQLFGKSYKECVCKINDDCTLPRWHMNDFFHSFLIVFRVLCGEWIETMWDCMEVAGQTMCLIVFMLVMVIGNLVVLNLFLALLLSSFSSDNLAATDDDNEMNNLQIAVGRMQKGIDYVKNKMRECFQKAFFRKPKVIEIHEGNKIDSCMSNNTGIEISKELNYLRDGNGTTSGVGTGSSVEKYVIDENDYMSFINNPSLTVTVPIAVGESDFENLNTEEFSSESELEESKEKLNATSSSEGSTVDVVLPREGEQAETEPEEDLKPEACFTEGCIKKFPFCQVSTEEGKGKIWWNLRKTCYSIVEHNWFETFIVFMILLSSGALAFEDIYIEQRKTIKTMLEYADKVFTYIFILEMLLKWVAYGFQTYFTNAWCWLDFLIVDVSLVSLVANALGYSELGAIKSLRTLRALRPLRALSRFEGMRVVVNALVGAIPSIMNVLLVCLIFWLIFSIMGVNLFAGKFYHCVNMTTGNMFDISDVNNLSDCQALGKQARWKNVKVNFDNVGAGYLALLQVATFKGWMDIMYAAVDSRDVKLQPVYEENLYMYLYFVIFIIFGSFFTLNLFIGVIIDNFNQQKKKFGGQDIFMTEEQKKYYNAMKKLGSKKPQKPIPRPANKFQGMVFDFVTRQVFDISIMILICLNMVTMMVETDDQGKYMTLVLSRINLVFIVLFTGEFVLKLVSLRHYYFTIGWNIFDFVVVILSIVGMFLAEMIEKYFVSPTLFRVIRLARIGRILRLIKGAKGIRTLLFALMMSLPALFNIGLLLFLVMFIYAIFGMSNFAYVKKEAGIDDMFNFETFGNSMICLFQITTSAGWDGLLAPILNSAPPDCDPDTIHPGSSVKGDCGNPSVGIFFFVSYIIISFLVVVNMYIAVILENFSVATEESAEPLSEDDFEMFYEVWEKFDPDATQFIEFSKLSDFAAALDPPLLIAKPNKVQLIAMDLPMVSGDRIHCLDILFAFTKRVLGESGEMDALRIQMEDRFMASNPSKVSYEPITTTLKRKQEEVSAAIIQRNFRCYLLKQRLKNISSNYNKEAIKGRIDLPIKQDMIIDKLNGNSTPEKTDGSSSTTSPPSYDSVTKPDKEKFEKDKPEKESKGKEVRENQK

Sequence of hNav1.7 (Q15858 whole entry, looked up): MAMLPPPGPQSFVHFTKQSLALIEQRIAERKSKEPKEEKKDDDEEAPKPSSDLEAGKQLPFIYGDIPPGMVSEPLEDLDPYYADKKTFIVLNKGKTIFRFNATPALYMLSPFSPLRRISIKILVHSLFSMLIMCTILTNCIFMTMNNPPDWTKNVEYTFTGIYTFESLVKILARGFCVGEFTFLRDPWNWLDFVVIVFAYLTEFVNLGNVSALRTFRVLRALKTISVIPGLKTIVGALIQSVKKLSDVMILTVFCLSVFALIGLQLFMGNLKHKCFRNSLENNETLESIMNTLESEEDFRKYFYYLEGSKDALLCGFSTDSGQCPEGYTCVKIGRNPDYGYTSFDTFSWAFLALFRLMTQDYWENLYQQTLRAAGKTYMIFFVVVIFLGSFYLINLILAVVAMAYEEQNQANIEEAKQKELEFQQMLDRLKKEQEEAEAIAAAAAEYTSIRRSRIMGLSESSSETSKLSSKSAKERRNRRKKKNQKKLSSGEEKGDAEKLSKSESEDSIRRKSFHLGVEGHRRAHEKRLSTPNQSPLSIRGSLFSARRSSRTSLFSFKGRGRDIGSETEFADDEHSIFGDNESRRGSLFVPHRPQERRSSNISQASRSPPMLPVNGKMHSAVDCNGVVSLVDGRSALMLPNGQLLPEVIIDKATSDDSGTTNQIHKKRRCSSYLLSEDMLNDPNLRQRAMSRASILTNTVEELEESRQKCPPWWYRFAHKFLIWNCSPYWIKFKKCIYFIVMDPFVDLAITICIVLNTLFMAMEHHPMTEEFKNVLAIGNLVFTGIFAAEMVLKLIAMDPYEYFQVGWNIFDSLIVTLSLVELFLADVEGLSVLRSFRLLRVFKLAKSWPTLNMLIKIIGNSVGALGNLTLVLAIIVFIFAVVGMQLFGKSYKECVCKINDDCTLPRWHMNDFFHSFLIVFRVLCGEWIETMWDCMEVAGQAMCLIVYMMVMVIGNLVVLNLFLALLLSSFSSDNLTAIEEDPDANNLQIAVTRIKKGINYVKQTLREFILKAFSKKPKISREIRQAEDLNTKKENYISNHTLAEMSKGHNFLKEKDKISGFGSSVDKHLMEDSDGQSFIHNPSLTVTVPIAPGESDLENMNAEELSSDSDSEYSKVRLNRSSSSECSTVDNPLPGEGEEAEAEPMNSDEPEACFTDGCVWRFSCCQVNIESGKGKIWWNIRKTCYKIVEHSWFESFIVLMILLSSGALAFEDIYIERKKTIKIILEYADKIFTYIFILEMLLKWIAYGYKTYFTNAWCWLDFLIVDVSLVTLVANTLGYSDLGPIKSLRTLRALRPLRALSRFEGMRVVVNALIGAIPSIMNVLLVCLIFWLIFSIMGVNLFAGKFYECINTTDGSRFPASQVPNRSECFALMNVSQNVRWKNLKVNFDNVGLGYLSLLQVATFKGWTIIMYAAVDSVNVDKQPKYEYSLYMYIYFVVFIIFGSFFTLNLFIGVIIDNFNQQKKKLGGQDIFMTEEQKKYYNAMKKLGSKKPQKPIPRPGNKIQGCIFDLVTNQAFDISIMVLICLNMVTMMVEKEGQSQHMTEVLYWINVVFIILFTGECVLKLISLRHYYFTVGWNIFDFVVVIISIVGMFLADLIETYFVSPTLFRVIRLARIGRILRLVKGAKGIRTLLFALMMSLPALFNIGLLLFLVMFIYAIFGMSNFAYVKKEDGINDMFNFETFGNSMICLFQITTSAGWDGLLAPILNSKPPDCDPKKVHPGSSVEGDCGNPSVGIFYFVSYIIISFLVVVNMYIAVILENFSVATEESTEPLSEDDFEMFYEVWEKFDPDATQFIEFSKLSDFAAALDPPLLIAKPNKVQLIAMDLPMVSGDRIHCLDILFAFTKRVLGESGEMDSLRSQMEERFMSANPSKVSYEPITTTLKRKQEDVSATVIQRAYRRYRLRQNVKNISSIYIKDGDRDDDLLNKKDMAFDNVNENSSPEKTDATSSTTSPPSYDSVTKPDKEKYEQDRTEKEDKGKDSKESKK

Compound	pIC50 [1]	pIC50 [2]	pIC50 [3]
C#CC[C@@H]1NC(=O)[C@H](CC(=O)O)NC(=O)[C@@H]2CCCN2C(=O)[C@H](CCC(=O)O)NC(=O)[C@@H]2CSSC[C@@H]3NC(=O)[C@H](C(C)C)NC(=O)[C@H](CC(C)C)NC(=O)[C@H](CC(N)=O)NC(=O)[C@@H]4CCCN4C(=O)[C@H](CCCNC(=N)N)NC(=O)[C@H](CSSC[C@H](NC(=O)[C@@H](N)CC(=O)O)C(=O)N[C@@H](CC(C)C)C(=O)NCC(=O)N[C@@H](C)C(=O)N[C@@H](Cc4ccccc4)C(=O)N[C@@H](CCCNC(=N)N)C(=O)N[C@@H](CCCCN)C(=O)N2)NC(=O)[C@H](CSSC[C@@H](C(=O)N[C@@H](CCCCN)C(=O)N[C@@H](Cc2ccc(O)cc2)C(=O)N[C@H](C(=O)N[C@@H](Cc2ccccc2)C(N)=O)C(C)C)NC(=O)[C@H](Cc2c[nH]c4ccccc24)NC(=O)[C@H](CCCNC(=N)N)NC(=O)[C@H](Cc2c[nH]cn2)NC(=O)[C@H](CC(C)C)NC(=O)[C@H](CCCNC(=N)N)NC(=O)[C@H](CO)NC3=O)NC(=O)[C@H](CCCCN)NC(=O)[C@H](CC(=O)O)NC1=O [compound 798] (H-DCLGAFRKCEPD[Pra]DKCCRPNLVCSRLHRWCKYVF-NH2; disulfide 2-17, 9-23, 16-30)	6.27	4.49	6.25
C#CC[C@H](NC(C)=O)C(=O)NCCCC[C@@H]1NC(=O)[C@H](CC(=O)O)NC(=O)[C@@H]2CCCN2C(=O)[C@H]([C@@H](C)CC)NC(=O)[C@@H]2CSSC[C@@H]3NC(=O)[C@H](C(C)C)NC(=O)[C@H](CC(C)C)NC(=O)[C@H](CC(N)=O)NC(=O)[C@@H]4CCCN4C(=O)[C@H](CCCNC(=N)N)NC(=O)[C@H](CSSC[C@H](NC(=O)[C@@H](N)CC(=O)O)C(=O)N[C@@H](CC(C)C)C(=O)NCC(=O)N[C@@H](CC)C(=O)N[C@@H](CC(C)C)C(=O)N[C@@H](CCCNC(=N)N)C(=O)N[C@@H](CCCCN)C(=O)N2)NC(=O)[C@H](CSSC[C@@H](C(=O)N[C@@H](CCCCN)C(=O)N[C@@H](Cc2ccc(O)cc2)C(=O)N[C@H](C(=O)N[C@@H](Cc2ccccc2)C(N)=O)C(C)C)NC(=O)[C@H](Cc2c[nH]c4ccccc24)NC(=O)[C@H](CCCCN)NC(=O)[C@H](Cc2c[nH]cn2)NC(=O)[C@H]([C@@H](C)O)NC(=O)[C@H](CCCNC(=N)N)NC(=O)[C@H](CO)NC3=O)NC(=O)[C@H](CCCCN)NC(=O)[C@H](CC(=O)O)NC1=O [compound 799] (H-DCLG[Abu]LRKCIPDK([Pra-Ac])DKCCRPNLVCSRTHKWCKYVF-NH2; disulfide 2-17, 9-23, 16-30)	6.12	4.55	6.15
C#CCCC(=O)NCCCC[C@@H]1NC(=O)[C@H](CC(=O)O)NC(=O)[C@@H]2CCCN2C(=O)[C@H]([C@@H](C)CC)NC(=O)[C@@H]2CSSC[C@@H]3NC(=O)[C@H](C(C)C)NC(=O)[C@H](CC(C)C)NC(=O)[C@H](CC(N)=O)NC(=O)[C@@H]4CCCN4C(=O)[C@H](CCCNC(=N)N)NC(=O)[C@H](CSSC[C@H](NC(=O)[C@@H](N)CC(=O)O)C(=O)N[C@@H](CC(C)C)C(=O)NCC(=O)N[C@@H](CC)C(=O)N[C@@H](CC(C)C)C(=O)N[C@@H](CCCNC(=N)N)C(=O)N[C@@H](CCCCN)C(=O)N2)NC(=O)[C@H](CSSC[C@@H](C(=O)N[C@@H](CCCCN)C(=O)N[C@@H](Cc2ccc(O)cc2)C(=O)N[C@H](C(=O)N[C@@H](Cc2ccccc2)C(N)=O)C(C)C)NC(=O)[C@H](Cc2c[nH]c4ccccc24)NC(=O)[C@H](CCCNC(=N)N)NC(=O)[C@H](Cc2c[nH]cn2)NC(=O)[C@H]([C@@H](C)O)NC(=O)[C@H](CCCNC(=N)N)NC(=O)[C@H](CO)NC3=O)NC(=O)[C@H](CCCCN)NC(=O)[C@H](CC(=O)O)NC1=O [compound 801] (H-DCLG[Abu]LRKCIPDK(Pent4ynoyl)DKCCRPNLVCSRTHRWCKYVF-NH2; disulfide 2-17, 9-23, 16-30)	6.26	4.40	6.09
C#CC[C@@H]1NC(=O)[C@@H]2CCCN2C(=O)[C@H]([C@@H](C)CC)NC(=O)[C@@H]2CSSC[C@@H]3NC(=O)[C@H](C(C)C)NC(=O)[C@H](CC(C)C)NC(=O)[C@H](CC(N)=O)NC(=O)[C@@H]4CCCN4C(=O)[C@H](CCCNC(=N)N)NC(=O)[C@H](CSSC[C@H](NC(=O)[C@@H](N)CC(=O)O)C(=O)N[C@@H](CC(C)C)C(=O)NCC(=O)N[C@@H](C)C(=O)N[C@@H](CC(C)C)C(=O)N[C@@H](CCCNC(=N)N)C(=O)N[C@@H](CCCCN)C(=O)N2)NC(=O)[C@H](CSSC[C@@H](C(=O)N[C@@H](CCCCN)C(=O)N[C@@H](Cc2ccc(O)cc2)C(=O)N[C@H](C(=O)N[C@@H](Cc2ccccc2)C(N)=O)C(C)C)NC(=O)[C@H](Cc2c[nH]c4ccccc24)NC(=O)[C@H](CCCNC(=N)N)NC(=O)[C@H](Cc2c[nH]cn2)NC(=O)[C@H](CC(C)C)NC(=O)[C@H](CCCNC(=N)N)NC(=O)[C@H](CO)NC3=O)NC(=O)[C@H](CCCCN)NC(=O)[C@H](CC(=O)O)NC(=O)[C@H](CC(N)=O)NC1=O [compound 802]	6.59	< 4.30	6.27
C#CC[C@@H]1NC(=O)[C@@H]2CCCN2C(=O)[C@H]([C@@H](C)CC)NC(=O)[C@@H]2CSSC[C@@H]3NC(=O)[C@H](C(C)C)NC(=O)[C@H](CC(C)C)NC(=O)[C@H](CC(N)=O)NC(=O)[C@@H]4CCCN4C(=O)[C@H](CCCNC(=N)N)NC(=O)[C@H](CSSC[C@H](NC(=O)[C@@H](N)CC(=O)O)C(=O)N[C@@H](CC(C)C)C(=O)NCC(=O)N[C@@H](C)C(=O)N[C@@H](Cc4ccccc4)C(=O)N[C@@H](CCCNC(=N)N)C(=O)N[C@@H](CCCCN)C(=O)N2)NC(=O)[C@H](CSSC[C@@H](C(=O)N[C@@H](CCCCN)C(=O)N[C@@H](Cc2ccc(O)cc2)C(=O)N[C@H](C(=O)N[C@@H](Cc2ccccc2)C(N)=O)C(C)C)NC(=O)[C@H](Cc2c[nH]c4ccccc24)NC(=O)[C@H](CCCNC(=N)N)NC(=O)[C@H](Cc2c[nH]cn2)NC(=O)[C@H](CC(C)C)NC(=O)[C@H](CCCNC(=N)N)NC(=O)[C@H](CO)NC3=O)NC(=O)[C@H](CCCCN)NC(=O)[C@H](CC(=O)O)NC(=O)[C@H](CC(N)=O)NC1=O [compound 803]	6.89	4.44	6.92
C#CCCC(=O)NCCCC[C@@H]1NC(=O)[C@H](CC(=O)O)NC(=O)[C@@H]2CCCN2C(=O)[C@H]([C@@H](C)CC)NC(=O)[C@@H]2CSSC[C@@H]3NC(=O)[C@H](C(C)C)NC(=O)[C@H](CC(C)C)NC(=O)[C@H](CC(N)=O)NC(=O)[C@@H]4CCCN4C(=O)[C@H](CCCNC(=N)N)NC(=O)[C@H](CSSC[C@H](NC(=O)[C@@H](N)CC(=O)O)C(=O)N[C@@H](CC(C)C)C(=O)NCC(=O)N[C@@H](CC)C(=O)N[C@@H](Cc4ccccc4)C(=O)N[C@@H](CCCNC(=N)N)C(=O)N[C@@H](CCCCN)C(=O)N2)NC(=O)[C@H](CSSC[C@@H](C(=O)N[C@@H](CCCCN)C(=O)N[C@@H](Cc2ccc(O)cc2)C(=O)N[C@H](C(=O)N[C@@H](Cc2ccccc2)C(N)=O)C(C)C)NC(=O)[C@H](Cc2c[nH]c4ccccc24)NC(=O)[C@H](CCCCN)NC(=O)[C@H](Cc2c[nH]cn2)NC(=O)[C@H]([C@@H](C)O)NC(=O)[C@H](CCCNC(=N)N)NC(=O)[C@H](CO)NC3=O)NC(=O)[C@H](CCCCN)NC(=O)[C@H](CC(=O)O)NC1=O [compound 804] (H-DCLG[Abu]FRKCIPDK(Pent4ynoyl)DKCCRPNLVCSRTHKWCKYVF-NH2; disulfide 2-17, 9-23, 16-30)	6.30	< 4.30	6.46
C#CCCC(=O)NCCCC[C@@H]1NC(=O)[C@H](CC(=O)O)NC(=O)[C@@H]2CCCN2C(=O)[C@H]([C@@H](C)CC)NC(=O)[C@@H]2CSSC[C@@H]3NC(=O)[C@H](C(C)C)NC(=O)[C@H](CC(C)C)NC(=O)[C@H](CC(N)=O)NC(=O)[C@@H]4CCCN4C(=O)[C@H](CCCNC(=N)N)NC(=O)[C@H](CSSC[C@H](NC(=O)[C@@H](N)CC(=O)O)C(=O)N[C@@H](CC(C)C)C(=O)NCC(=O)N[C@@H](CCC)C(=O)N[C@@H](CC(C)C)C(=O)N[C@@H](CCCNC(=N)N)C(=O)N[C@@H](CCCCN)C(=O)N2)NC(=O)[C@H](CSSC[C@@H](C(=O)N[C@@H](CCCCN)C(=O)N[C@@H](Cc2ccc(O)cc2)C(=O)N[C@H](C(=O)N[C@@H](Cc2ccccc2)C(N)=O)C(C)C)NC(=O)[C@H](Cc2c[nH]c4ccccc24)NC(=O)[C@H](CCCNC(=N)N)NC(=O)[C@H](Cc2c[nH]cn2)NC(=O)[C@H]([C@@H](C)O)NC(=O)[C@H](CCCNC(=N)N)NC(=O)[C@H](CO)NC3=O)NC(=O)[C@H](CCCCN)NC(=O)[C@H](CC(=O)O)NC1=O [compound 805] (H-DCLG[Nva]LRKCIPDK(Pent4ynoyl)DKCCRPNLVCSRTHRWCKYVF-NH2; disulfide 2-17, 9-23, 16-30)	6.51	4.43	6.57
C#CCCC(=O)NCCCC[C@@H]1NC(=O)[C@H](CC(=O)O)NC(=O)[C@@H]2CCCN2C(=O)[C@H]([C@@H](C)CC)NC(=O)[C@@H]2CSSC[C@@H]3NC(=O)[C@H](C(C)C)NC(=O)[C@H](CC(C)C)NC(=O)[C@H](CC(N)=O)NC(=O)[C@@H]4CCCN4C(=O)[C@H](CCCNC(=N)N)NC(=O)[C@H](CSSC[C@H](NC(=O)[C@@H](N)CC(=O)O)C(=O)N[C@@H](CC(C)C)C(=O)NCC(=O)N[C@@H](CCC)C(=O)N[C@@H](CC(C)C)C(=O)N[C@@H](CCCNC(=N)N)C(=O)N[C@@H](CCCCN)C(=O)N2)NC(=O)[C@H](CSSC[C@@H](C(=O)N[C@@H](CCCCN)C(=O)N[C@@H](Cc2ccc(O)cc2)C(=O)N[C@H](C(=O)N[C@@H](Cc2ccccc2)C(N)=O)C(C)C)NC(=O)[C@H](Cc2c[nH]c4ccccc24)NC(=O)[C@H](CCCCN)NC(=O)[C@H](Cc2c[nH]cn2)NC(=O)[C@H]([C@@H](C)O)NC(=O)[C@H](CCCNC(=N)N)NC(=O)[C@H](CO)NC3=O)NC(=O)[C@H](CCCCN)NC(=O)[C@H](CC(=O)O)NC1=O [compound 806] (H-DCLG[Nva]LRKCIPDK(Pent4ynoyl)DKCCRPNLVCSRTHKWCKYVF-NH2; disulfide 2-17, 9-23, 16-30)	6.54	4.47	6.41
